The text below walks through data of patent US20170182015A1, “METHODS OF USING SNS-595 FOR TREATMENT OF CANCER SUBJECTS WITH REDUCED BRCA2 ACTIVITY” (Sunesis Pharmaceuticals, Inc., priority 2009, published 2017).

Data set [1] relates to U-2 OS cells. As to the kind of experiment: Colony outgrowth assay (clonogenic survival), wild-type vs BRCA2 siRNA depleted. It is filed as cell-based, human. The note with it: 14 days.
Method: Activity of SNS-595 in these assays was evaluated by clonogenic survival and compared with doxorubicin. The following protocol was used for the assay:
1. 200,000 cells were plated in each of 2 wells in a 6-well plate, and incubated over night at 37° C. and 5% CO2 atmosphere.
A: Test: 50 μL of 2 μM siBRCA2 (si Genome SMARTpool, Dharmacon)+150 μL OptiMEM (Gibco)
B: Control (no siRNA): 200 μL OptiMEM
C: 2 μL DharmaFect 1 (Dharmacon)+198 μL OptiMEM
2. Reagents were allowed to stand at room temperature for 5 minutes.
3. Reagents A+C and B+C were mixed and allowed to stand at room temperature for 20 min.
4. The media in wells was replaced with 1.6 mL of antibiotic-free media (DMEM, Gibco).
5. 400 μL of reagents A+B or B+C were added and mixed in wells. The plate was incubated at 37° C.
1. After 24 hr of siRNA treatment, cells were trypsinized and counted.
2. Cells were plated in 100 mm dishes at 500 or 1000 cells/dish in 10 mL media and incubated for 4 hr.
3. After 4 hr, test substances were added and plates were incubated for 14 days.
1. The plates were harvested and cells were fixed in methylene blue (4g/L in methanol) and colonies containing more than 50 cells were counted.
In data set [2] the test system is VC8-B2 cells (complemented for functional BRCA2). As to the kind of experiment: Growth inhibition (proliferation) assay in BRCA2 complemented cells. The class given is cell-based, Chinese hamster. The note with it: Cricetulus griseus; VC8-B2 cells expressing functional BRCA2; 4 hr treatment, 120 hr incubation, resazurin. As for the experimental part:
(§1) The VC8 and VC8-B2 cell lines originate from V79 Chinese hamster […] fibroblast cells. VC8 has a mutation in the brca2 gene and VC8-B2 is this cell line complemented with the human chromosome 13 (containing the brca2 gene; […] Zwet et al., Mol Cell Biol, 2002, 22(2):669-679). The influence of BRCA2 on sensitivity to SNS-595 was evaluated by a proliferation assay in Chinese hamster cells mutant (VC8) and complemented for functional BRCA2 (VC8-B2). […] The following protocol was used for the assay: 1. 4000 cells/well were plated in a 96-well plate such that half of the plate contained VC8 cells, and other half contained VC8-B2 cells. The last column was left cell-free as background control. 2. The plate was incubated at 37° C. with 5% CO2. 1. The media was removed and 50 μL of fresh media was added into each well. 2. […] 3. 100 μL from the first column was transferred into second column and mixed. 100 μL from the second column was transferred into third column and mixed and so on until end of plate. One column was left untreated. The plate was incubated at 37° C. with 5% CO2. […] After 4 hr treatment, plate was washed twice with 100 μL PBS and 250 μL media was added. The plate was incubated at 37° C. with 5% CO2. 1. After 120 hr incubation, the plate was washed with 100 μL PBS and 100 μL resaszurin (10 μg/mL in phenol red-free complete DMEM) was added. 2.
(In general: The colour change of resazurin is a common sign of viable cells or microbes.)

Data set [3] deals with SPD8 cells (hprt gene reversion by homologous recombination). The data set can be described thus: Recombination assay: HPRT mutation reversion frequency. It is filed as cell-based, Chinese hamster. The note with it: for reversion frequency: alone, SNS-595 2 μM, doxorubicin 0.5 μM, 4 hr treatment; for effect of S-phase block (aphidicolin co-treatment) on induced reversion rate / recombination events: co-treatment with aphidicolin 0.5 μM. The source says:
(§2) The SPD8 cell line carries a spontaneously derived mutation in the hprt gene and was isolated as a 6-thioguanine (6TG) resistant clone from the V79 Chinese hamster fibroblast cell line. The mutation within the hprt gene is a tandem duplication of exon 7, intron 6, and the 3′ portion of exon 6 that results in expression of a non-functional HPRT protein (Darè et al., Somat Cell Mol Genet, 1996, 22:201-210; and Helleday et al., J Mol Biol, 1998, 279(4):687-694). This duplication can be lost through HR that revert the hprt gene to wild-type, which can be selected for in HAsT (50 μM hypoxanthine, 10 μM L-azaserine, 5 μM thymidine) (Helleday et al. 1998). The DMEM was supplemented with 6TG (5 μg/mL) in order to kill cells that undergo spontaneous reversion. The addition of 6TG at this concentration affects neither the growth rate of these mutants nor the recombination assay procedure.
(§3) Each flask (75 cm^2) was inoculated with 1.5×10^6 SPD8 cells 24 hr prior to treatment with SNS-595 (2 μM) or doxorubicin (0.5 μM) and in co-treatment with aphidicolin (0.5 μM). After 4 hr of treatment, flasks were rinsed twice with PBS and 20 mL DMEM was added. Cells were then incubated for 48 hr to recover before plating onto Petri dishes. Cloning efficiency was measured by plating 500 cells in 10 mL of medium, two Petri dishes per dose. HPRT+ revertants were selected for by plating 3×10^5 cells/dish in the presence of HAsT (50 μM hypoxanthine,10 μM L-azaserine, 5μM thymidine), three dishes per dose. After 7 and 10 days, respectively, the plates were harvested and the colonies were fixed and stained using methylene blue in methanol (4 g/L). Colonies containing more than 50 cells were counted.

The test system of data set [4] is VC8 cells (BRCA2 mutant). As to the kind of experiment: Growth inhibition (proliferation) assay in BRCA2 mutant cells. It is filed as cell-based, Chinese hamster. Particulars: for IC50: Cricetulus griseus, V-C8, VC8 cells mutant for BRCA2, 4 hr treatment, 120 hr incubation, resazurin; for increase in sensitivity in cells mutant for BRCA2 as compared to cells expressing functional BRCA2: VC8 vs VC8-B2, ratio of IC50. The procedure: as §1

The test system of data set [5] is SPD8 cells. The data set can be described thus: Recombination assay: cloning efficiency. Particulars: SNS-595 2 μM, doxorubicin 0.5 μM; for cloning efficiency: alone, 4 hr treatment; for effect of aphidicolin (S-phase blocker) co-treatment on cytotoxicity: co-treatment with aphidicolin 0.5 μM. It is filed as cell-based, Chinese hamster.
From the text: as §2, §3

For data set [6], the system named is SPD8 cells. The data set can be described thus: Pulsed field gel electrophoresis (PFGE) of DNA fragments. The class given is cell-based, Chinese hamster.
From the text: as §2
Two million (2×10^6) SPD8 cells were seeded in flasks (75 cm^2) and incubated overnight. Subsequently, cells were treated with SNS-595 (20 μM) or doxorubicin (3 μM) and in co-treatment with aphidicolin (3 μM) for 4 hr before being melted into agarose insert (1×10^6 cells/70 μL 1% InCert Agarose, BMA). Inserts were transferred to 0.5 M EDTA, 1% N-laurylsarcosyl and proteinase K (1 mg/mL) and incubated at 50° C. for 48 hr and thereafter washed four times in TE-buffer (2 hr between each wash) prior to loading onto an agarose separation gel (1% Chromosomal grade agarose, Bio-Rad). Separation was performed on a CHEF DR III system (BioRad; 120° field angle, 240 seconds switch time, 4 V/cm) for 18 hr or for 24 hours with 60 to 240 seconds switch time. The gel was stained with ethidium bromide for 5 hr and subsequently analyzed by scanning fluorescence reader (Molecular Imager FX, BioRad) using Quantative One software.

Broadly, the IC50 is the concentration needed to halve the response being measured. Read a low IC50 as greater potency in that assay. Turning to `CN[C@H]1CN(c2ccc3c(=O)c(C(=O)O)cn(-c4nccs4)c3n2)C[C@@H]1OC` [SNS-595, (+)-1,4-dihydro-7-[(3S,4S)-3-methoxy-4-(methylamino)-1-pyrrolidinyl]-4-oxo-1-(2-thiazolyl)-1,8-naphthyridine-3-carboxylic acid], the “sensitivity of U-2 OS cells depleted for BRCA2 using siRNA relative to wild-type cells” value in data set [1] came out at 4.6 ×. Also, in data set [2], the IC50 was 720 nM. In data set [3], the reversion frequency entry is listed as “increased” and the “effect of S-phase block (aphidicolin co-treatment) on induced reversion rate / recombination events” value is “no effect”. In data set [4], half-maximal inhibition (IC50) was put at 140 nM and the “increase in sensitivity in cells mutant for BRCA2 as compared to cells expressing functional BRCA2” value is listed as “approximately 5 fold”. Moreover, in data set [5], the cloning efficiency entry is given as “significantly impaired” and the “effect of aphidicolin (S-phase blocker) co-treatment on cytotoxicity” value was “reduction in cytotoxicity”.

`COc1cccc2c1C(=O)c1c(O)c3c(c(O)c1C2=O)C[C@@](O)(C(=O)CO)C[C@@H]3O[C@H]1C[C@H](N)[C@H](O)[C@H](C)O1` [doxorubicin]: the “production of small DNA fragments” value in data set [6] (FIG. 5 and 6, SNS-595 20 μM, doxorubicin 3 μM, 4 hr, PFGE 18 hr and 24 hr runs) is “more small DNA fragments”. Besides, the “production of small DNA fragments” value in data set [6] (FIG. 7, 18 hr PFGE run, 240 seconds switch time) is reported as “more small DNA fragments”. Further, the “production of small DNA fragments” value in data set [6] (FIG. 8, 24 hr PFGE run, 60 to 240 seconds switch time) is “more small DNA fragments”. For the same compound, inhibition in data set [2] was half-maximal at 190 nM (IC50). In addition, in data set [3], the reversion frequency entry was “increased” and the “effect of S-phase block (aphidicolin co-treatment) on induced reversion rate / recombination events” value is on record as “significantly reduced”. Also, in data set [4], the IC50 turned out to be 50 nM and the “increase in sensitivity in cells mutant for BRCA2 as compared to cells expressing functional BRCA2” value is listed as “approximately 4 fold”. For the same compound, in data set [5], the cloning efficiency result is given as “significantly impaired” and the “effect of aphidicolin (S-phase blocker) co-treatment on cytotoxicity” value was “reduction in cytotoxicity”.
